# Earlier results, collected in patent US6455592B1, “Use of hydrophilic penetration agents in dermatological compositions for the treatment of onychomycoses, and corresponding compositions” (Novartis AG, priority 1991, dated 2002).
# Structures can show the parent of a compound that is named as a salt.
# Conditions: oral treatment with 250 mg/day over 8 weeks
smiles,measurement,value
"CN(C/C=C/C#CC(C)(C)C)Cc1cccc2ccccc12 [terbinafine-HCl, Terbinafine hydrochloride]",concentration of terbinafine-HCl in the nails,0.4±0.15 ng of terbinafine-HCl per mg of nail material
